Measured values from patent publication US20240217989A1, “Heteroaryl Fluoroalkenes As DGK Inhibitors” (Incyte Corporation, priority 2022, published 2024).

Tests used:
DGKα = target: T1, DGKα (Homo sapiens, UniProt P23743); assay: In vitro DGKα inhibition assay (ADP-Glo); assay type: biochemical; conditions: His-tagged human recombinant enzyme; 0.1 nM DGKα, 50 μM ATP, 20 μM DLG; 90 minute incubation; ADP-Glo luminescence
T1 construct: His; purchased Signal Chem D21-10BH
Method: (§1) The DGKα and DGKζ biochemical reactions were performed using His-tagged human recombinant enzymes (Signal Chem, DGKα, #D21-10BH; DGKζ, #D30-10H)) and DLG (Dilauroyl-sn-glycerol) lipid substrate (Signal Chem, #D430-59). ADP-Glo assay was performed using ADP-Glo™ kinase Assay kit (Promega, #V9104). The reactions were carried out in assay buffer containing 40 mM Tris, pH 7.5, 0.1% CHAPS, 0.1% Prionex, 40 mM NaCl, 5 mM MgCl2, 1 mM CaCl2, and 1 mM DTT. DGKα reactions contained 0.1 nM DGKα, 50 μM ATP, and 20 μM DLG. And DGKζ reactions contained 0.4 nM DGKζ, 30 μM ATP, and 20 μM DLG. For compound inhibition studies, 40 nL test compound in DMSO was added to wells of white polystyrene plates in 384-well (Greiner, #784075) or 1536-well format (Greiner, #782075). Compounds were added with top concentration of 2 mM with 11 point, 3-fold dilution series. Enzyme solution (contains 2× DGK enzyme concentration in 1× assay buffer) was added to the plate in 2 μL/well volume, followed by 2 μL/well of substrate solution (contains 2× concentration of ATP and DLG substrate in 1× assay buffer). Plates were then centrifuged for 1 min at 1200 RPM and sealed or lidded. For 4 μL reaction volume, test compounds were therefore diluted 100× to final top concentration of 20 μM. After 90 minute incubation, reactions were quenched by addition of 2 μL/well Promega ADP-Glo Reagent, followed by centrifugation and lidding. After 60 min incubation, 2 μL/well Promega Kinase Detection Reagent was added, plates centrifuged, and incubated for 30 min. Plates were then read using Luminescence method on BMG PHERAstar FSX plate reader. Percent inhibition was calculated and IC50s were determined using 4-parameter fit in Genedata Screener. Labcyte Echo acoustic dispenser was used for compound addition, and Formulatrix Tempest liquid handler was used for all reagent dispenses.

DGKζ = DGKζ (Homo sapiens, UniProt Q13574); assay: In vitro DGKζ inhibition assay (ADP-Glo); assay type: biochemical; conditions: His-tagged human recombinant enzyme; 0.4 nM DGKζ, 30 μM ATP, 20 μM DLG; 90 minute incubation; ADP-Glo luminescence
DGKζ, sequence (Q13574 whole entry): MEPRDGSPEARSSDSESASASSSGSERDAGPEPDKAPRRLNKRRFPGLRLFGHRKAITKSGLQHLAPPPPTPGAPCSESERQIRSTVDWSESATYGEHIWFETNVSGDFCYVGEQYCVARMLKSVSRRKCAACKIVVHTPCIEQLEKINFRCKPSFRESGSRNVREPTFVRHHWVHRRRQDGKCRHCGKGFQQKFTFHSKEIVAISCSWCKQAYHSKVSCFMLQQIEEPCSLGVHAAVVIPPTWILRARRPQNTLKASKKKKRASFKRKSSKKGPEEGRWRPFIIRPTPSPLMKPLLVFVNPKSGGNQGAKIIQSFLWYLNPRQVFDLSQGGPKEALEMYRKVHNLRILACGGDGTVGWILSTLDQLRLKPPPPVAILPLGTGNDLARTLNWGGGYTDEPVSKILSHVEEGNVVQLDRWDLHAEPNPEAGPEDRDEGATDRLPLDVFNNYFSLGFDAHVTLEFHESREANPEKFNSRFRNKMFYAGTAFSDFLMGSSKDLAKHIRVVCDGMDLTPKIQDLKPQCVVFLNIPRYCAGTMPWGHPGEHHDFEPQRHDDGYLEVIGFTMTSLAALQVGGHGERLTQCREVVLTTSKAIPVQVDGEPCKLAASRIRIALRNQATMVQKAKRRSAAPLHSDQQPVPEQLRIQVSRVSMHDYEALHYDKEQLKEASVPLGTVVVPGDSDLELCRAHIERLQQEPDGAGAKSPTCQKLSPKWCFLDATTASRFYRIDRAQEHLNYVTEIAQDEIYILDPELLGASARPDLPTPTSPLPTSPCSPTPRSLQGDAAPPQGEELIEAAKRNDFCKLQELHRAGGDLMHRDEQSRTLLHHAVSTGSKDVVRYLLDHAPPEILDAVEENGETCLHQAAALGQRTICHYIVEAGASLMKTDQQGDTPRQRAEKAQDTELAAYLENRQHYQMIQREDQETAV
Method: as §1

T1 sequence (P23743 whole entry): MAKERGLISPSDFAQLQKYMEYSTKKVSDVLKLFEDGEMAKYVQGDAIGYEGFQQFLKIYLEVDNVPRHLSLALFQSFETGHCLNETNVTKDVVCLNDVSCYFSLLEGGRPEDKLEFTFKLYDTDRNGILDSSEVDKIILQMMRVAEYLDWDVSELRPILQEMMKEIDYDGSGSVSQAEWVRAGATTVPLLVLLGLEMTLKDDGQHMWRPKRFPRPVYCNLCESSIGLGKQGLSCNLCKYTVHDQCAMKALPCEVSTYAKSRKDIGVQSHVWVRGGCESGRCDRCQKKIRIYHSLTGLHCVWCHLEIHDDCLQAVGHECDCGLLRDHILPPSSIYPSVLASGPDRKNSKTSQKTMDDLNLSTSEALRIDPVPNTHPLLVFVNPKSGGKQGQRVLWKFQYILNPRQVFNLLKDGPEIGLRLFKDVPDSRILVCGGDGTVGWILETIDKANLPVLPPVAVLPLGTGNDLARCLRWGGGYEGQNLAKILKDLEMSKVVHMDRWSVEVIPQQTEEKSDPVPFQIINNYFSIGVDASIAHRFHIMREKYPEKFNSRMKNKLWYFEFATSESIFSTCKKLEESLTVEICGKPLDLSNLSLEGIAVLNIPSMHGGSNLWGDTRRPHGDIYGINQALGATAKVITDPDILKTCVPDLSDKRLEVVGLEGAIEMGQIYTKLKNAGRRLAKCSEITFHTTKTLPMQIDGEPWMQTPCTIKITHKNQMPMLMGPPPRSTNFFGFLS

SMILES: COCCN1CCC2(CCCN(c3c(/C=C(\F)c4nccc(-c5ccnnc5)n4)ccc(Oc4ccccc4)c3C(F)(F)F)C2)CC1 [Example 31, (Z)-2-(6-(2-Fluoro-2-(4-(pyridazin-4-yl)pyrimidin-2-yl)vinyl)-3-phenoxy-2-(trifluoromethyl)phenyl)-9-(2-methoxyethyl)-2,9-diazaspiro[5.5]undecane]
- IC50 (DGKα): ≤ 20 nM
- IC50 (DGKζ): ≤ 20 nM

SMILES: CCN1CCC2(CCCN(c3c(/C=C(\F)c4nccc(-c5ccnnc5)n4)ccc(Oc4ncccc4F)c3C(F)(F)F)C2)CC1 [Example 32, (Z)-9-Ethyl-2-(6-(2-fluoro-2-(4-(pyridazin-4-yl)pyrimidin-2-yl)vinyl)-3-((3-fluoropyridin-2-yl)oxy)-2-(trifluoromethyl)phenyl)-2,9-diazaspiro[5.5]undecane]
- IC50 (DGKα): ≤ 20 nM
- IC50 (DGKζ): ≤ 20 nM

SMILES: CCN1CCC2(CCCN(c3c(/C=C(\F)c4cccc(-c5ccnnc5)n4)ccc(Oc4ncccc4F)c3C(F)(F)F)C2)CC1 [Example 33, (Z)-9-Ethyl-2-(6-(2-fluoro-2-(6-(pyridazin-4-yl)pyridin-2-yl)vinyl)-3-((3-fluoropyridin-2-yl)oxy)-2-(trifluoromethyl)phenyl)-2,9-diazaspiro[5.5]undecane]
- IC50 (DGKα): ≤ 20 nM
- IC50 (DGKζ): ≤ 20 nM

SMILES: CCN1CCC2(CC1)CN(c1c(/C=C(\F)c3cncc(-c4ccnnc4)n3)ccc(Oc3cccc(F)c3)c1C(F)(F)F)CCO2 [Example 34, (Z)-9-Ethyl-4-(6-(2-fluoro-2-(6-(pyridazin-4-yl)pyrazin-2-yl)vinyl)-3-(3-fluorophenoxy)-2-(trifluoromethyl)phenyl)-1-oxa-4,9-diazaspiro[5.5]undecane]
- IC50 (DGKα): ≤ 20 nM
- IC50 (DGKζ): ≤ 20 nM

SMILES: CCN1CCC2(CC1)CN(c1c(/C=C(\F)c3cncc(-c4ccnnc4)n3)ccc(Oc3ccccc3F)c1C(F)(F)F)CCO2 [Example 35, (Z)-9-Ethyl-4-(6-(2-fluoro-2-(6-(pyridazin-4-yl)pyrazin-2-yl)vinyl)-3-(2-fluorophenoxy)-2-(trifluoromethyl)phenyl)-1-oxa-4,9-diazaspiro[5.5]undecane]
- IC50 (DGKα): ≤ 20 nM
- IC50 (DGKζ): ≤ 20 nM

SMILES: F/C(=C\c1ccc(Oc2ccccc2F)c(C(F)(F)F)c1N1CCOC2(CCN(CC3CC3)CC2)C1)c1cncc(-c2ccnnc2)n1 [Example 36, (Z)-9-(Cyclopropylmethyl)-4-(6-(2-fluoro-2-(6-(pyridazin-4-yl)pyrazin-2-yl)vinyl)-3-(2-fluorophenoxy)-2-(trifluoromethyl)phenyl)-1-oxa-4,9-diazaspiro[5.5]undecane]
- IC50 (DGKα): 20 to 200 nM
- IC50 (DGKζ): ≤ 20 nM

SMILES: F/C(=C\c1ccc(Oc2ccccc2F)c(C(F)(F)F)c1N1CCCC2(CCN(CC3CC3)CC2)C1)c1cncc(-c2ccnnc2)n1 [Example 37, (Z)-9-(Cyclopropylmethyl)-2-(6-(2-fluoro-2-(6-(pyridazin-4-yl)pyrazin-2-yl)vinyl)-3-(2-fluorophenoxy)-2-(trifluoromethyl)phenyl)-2,9-diazaspiro[5.5]undecane]
- IC50 (DGKα): ≤ 20 nM
- IC50 (DGKζ): ≤ 20 nM

SMILES: F/C(=C\c1ccc(Oc2ccc(F)cc2F)c(C(F)(F)F)c1N1CCCC2(CCN(CC3CC3)CC2)C1)c1cncc(-c2ccnnc2)n1 [Example 38, (Z)-9-(Cyclopropylmethyl)-2-(3-(2,4-difluorophenoxy)-6-(2-fluoro-2-(6-(pyridazin-4-yl)pyrazin-2-yl)vinyl)-2-(trifluoromethyl)phenyl)-2,9-diazaspiro[5.5]undecane]
- IC50 (DGKα): ≤ 20 nM
- IC50 (DGKζ): ≤ 20 nM

SMILES: F/C(=C\c1ccc(Oc2ccccc2F)c(C(F)(F)F)c1N1CCCC2(CCN(CC3CC3)CC2)C1)c1nccc(-c2ccnnc2)n1 [Example 39, (Z)-9-(Cyclopropylmethyl)-2-(6-(2-fluoro-2-(4-(pyridazin-4-yl)pyrimidin-2-yl)vinyl)-3-(2-fluorophenoxy)-2-(trifluoromethyl)phenyl)-2,9-diazaspiro[5.5]undecane]
- IC50 (DGKα): ≤ 20 nM
- IC50 (DGKζ): ≤ 20 nM

SMILES: CCN1CCC2(CCCN(c3c(/C=C(\F)c4nccc(-c5ccnnc5)n4)ccc(Oc4ccccc4F)c3C(F)(F)F)C2)CC1 [Example 40, (Z)-9-Ethyl-2-(6-(2-fluoro-2-(4-(pyridazin-4-yl)pyrimidin-2-yl)vinyl)-3-(2-fluorophenoxy)-2-(trifluoromethyl)phenyl)-2,9-diazaspiro[5.5]undecane]
- IC50 (DGKα): ≤ 20 nM
- IC50 (DGKζ): ≤ 20 nM

SMILES: CCN1CCC2(CC1)CN(c1c(/C=C(\F)c3nccc(-c4ccnnc4)n3)ccc(Oc3ccccc3F)c1C(F)(F)F)CCO2 [Example 41, (Z)-9-Ethyl-4-(6-(2-fluoro-2-(4-(pyridazin-4-yl)pyrimidin-2-yl)vinyl)-3-(2-fluorophenoxy)-2-(trifluoromethyl)phenyl)-1-oxa-4,9-diazaspiro[5.5]undecane]
- IC50 (DGKα): ≤ 20 nM
- IC50 (DGKζ): ≤ 20 nM

SMILES: F/C(=C\c1ccc(Oc2ccccc2F)c(C(F)(F)F)c1N1CCOC2(CCN(CC3CC3)CC2)C1)c1nccc(-c2ccnnc2)n1 [Example 42, (Z)-9-(Cyclopropylmethyl)-4-(6-(2-fluoro-2-(4-(pyridazin-4-yl)pyrimidin-2-yl)vinyl)-3-(2-fluorophenoxy)-2-(trifluoromethyl)phenyl)-1-oxa-4,9-diazaspiro[5.5]undecane]
- IC50 (DGKα): ≤ 20 nM
- IC50 (DGKζ): ≤ 20 nM

SMILES: NC[C@@H]1CCCN(c2c(/C=C(\F)c3nccc(-c4ccnnc4)n3)ccc(Oc3ccccc3)c2C(F)(F)F)C1 [Example 43, (S,Z)-(1-(6-(2-Fluoro-2-(4-(pyridazin-4-yl)pyrimidin-2-yl)vinyl)-3-phenoxy-2-(trifluoromethyl)phenyl)piperidin-3-yl)methanamine]
- IC50 (DGKα): ≤ 20 nM
- IC50 (DGKζ): ≤ 20 nM

SMILES: CCN1CCC2(CCCN(c3c(/C=C(\F)c4cncc(N5CC(F)(F)C5)n4)ccc(Oc4ccccc4F)c3C(F)(F)F)C2)CC1 [Example 44, (Z)-2-(6-(2-(6-(3,3-Difluoroazetidin-1-yl)pyrazin-2-yl)-2-fluorovinyl)-3-(2-fluorophenoxy)-2-(trifluoromethyl)phenyl)-9-ethyl-2,9-diazaspiro[5.5]undecane]
- IC50 (DGKα): ≤ 20 nM
- IC50 (DGKζ): ≤ 20 nM

SMILES: OCCN1CCC2(CCCN(c3c(/C=C(\F)c4nccc(-c5cnsc5)n4)ccc(Oc4ccccc4F)c3C(F)(F)F)C2)CC1 [Example 45, (Z)-2-(2-(6-(2-Fluoro-2-(4-(isothiazol-4-yl)pyrimidin-2-yl)vinyl)-3-(2-fluorophenoxy)-2-(trifluoromethyl)phenyl)-2,9-diazaspiro[5.5]undecan-9-yl)ethan-1-ol]
- IC50 (DGKα): ≤ 20 nM
- IC50 (DGKζ): ≤ 20 nM

SMILES: CCN1CCC2(CCCN(c3c(/C=C(\F)c4nccc(-c5cnsc5)n4)ccc(Oc4ccccc4F)c3C(F)(F)F)C2)CC1 [Example 46, (Z)-4-(2-(2-(2-(9-Ethyl-2,9-diazaspiro[5.5]undecan-2-yl)-4-(2-fluorophenoxy)-3-(trifluoromethyl)phenyl)-1-fluorovinyl)pyrimidin-4-yl)isothiazole]
- IC50 (DGKα): ≤ 20 nM
- IC50 (DGKζ): ≤ 20 nM

SMILES: F/C(=C\c1ccc(Oc2cccc(F)c2F)c(C(F)(F)F)c1N1CCCC2(CCN(CC3CC3)CC2)C1)c1cncc(-c2cnsc2)n1 [Example 47, (Z)-4-(6-(2-(2-(9-(Cyclopropylmethyl)-2,9-diazaspiro[5.5]undecan-2-yl)-4-(2,3-difluorophenoxy)-3-(trifluoromethyl)phenyl)-1-fluorovinyl)pyrazin-2-yl)isothiazole]
- IC50 (DGKα): ≤ 20 nM
- IC50 (DGKζ): ≤ 20 nM

SMILES: F/C(=C\c1ccc(OC2CCCCC2)c(C(F)(F)F)c1N1CCCC2(CCN(CC3CC3)CC2)C1)c1cncc(-c2ccnnc2)n1 [Example 48, (Z)-2-(3-(Cyclohexyloxy)-6-(2-fluoro-2-(6-(pyridazin-4-yl)pyrazin-2-yl)vinyl)-2-(trifluoromethyl)phenyl)-9-(cyclopropylmethyl)-2,9-diazaspiro[5.5]undecane]
- IC50 (DGKα): ≤ 20 nM
- IC50 (DGKζ): ≤ 20 nM

SMILES: F/C(=C\c1ccc(Oc2cccc(F)c2F)c(C(F)(F)F)c1N1CCCC2(CCN(CC3CC3)CC2)C1)c1cncc(-c2ccns2)n1 [Example 49, (Z)-5-(6-(2-(2-(9-(Cyclopropylmethyl)-2,9-diazaspiro[5.5]undecan-2-yl)-4-(2,3-difluorophenoxy)-3-(trifluoromethyl)phenyl)-1-fluorovinyl)pyrazin-2-yl)isothiazole]
- IC50 (DGKα): ≤ 20 nM
- IC50 (DGKζ): ≤ 20 nM

SMILES: F/C(=C\c1ccc(OC2CCCCC2)c(C(F)(F)F)c1N1CCCC2(CCN(CC3CC3)CC2)C1)c1nccc(-c2ccnnc2)n1 [Example 50, (Z)-2-(3-(Cyclohexyloxy)-6-(2-fluoro-2-(4-(pyridazin-4-yl)pyrimidin-2-yl)vinyl)-2-(trifluoromethyl)phenyl)-9-(cyclopropylmethyl)-2,9-diazaspiro[5.5]undecane]
- IC50 (DGKα): ≤ 20 nM
- IC50 (DGKζ): ≤ 20 nM
